Consider one molecule from patent publication US5296596A, “Hexahydroazepine derivatives, a process for their preparation” (ELF SANOFI, priority 1990, dated 1994).

What is called IC50 is the concentration at which inhibition is half-maximal.

Assay [1] concerns sigma receptors. The experiment in a line: Sigma receptor activity/selectivity (test not specified). As to conditions: from Table I, versus haloperidol. Format: binding.
For assay [2], the system named is hyperactivity induced by d-amphetamine. The assay can be described thus: Antagonism of hyperactivity induced in mice by d-amphetamine. The assay is classed as in vivo. As to conditions: predictive test for antipsychotic activity.
The target of another assay is TCP. The experiment in a line: Binding in vitro, TCP (thienylcyclohexylpiperidine). As to conditions: ligand TCP.
The target of a further assay is T1, dopaminergic receptor(s) (Rattus norvegicus, UniProt P61169).
T1 construct: from tissue; host or cells: rat brain, probably striatum (inferred from the cited methods)
The experiment in a line: biochemical. As to conditions: binding in vitro, ligand spiroperidol.

In assay [3] the target is T2, sigma receptors (Rattus norvegicus, UniProt Q9R0C9).
T2 construct: in vitro on rat cerebral membranes; from tissue; host or cells: rat cerebral membranes
The assay can be described thus: biochemical. As to conditions: binding in vitro, ligand (+)-3-PPP, rat cerebral membranes. The text has this: (§1) These tests have been carried out in vitro on rat cerebral membranes using as ligands either ^3 H-(+)-3 PPP according to Largent et al., J. Phamacol. […] Acad. Sci. USA, 1986, 83, 8784-8788 and in vivo in mice with the ligand ^3 H-3 PPP according to B. Kenneth Koe et al., European J. Pharmacol., 1989, 161, 263-266.

The target of assay [4] is sigma receptors. The assay can be described thus: Binding in vitro on rat cerebral membranes, ligand 3H-DTG.
Description: as §1

For assay [5], the system named is sigma receptors. The assay can be described thus: In vivo displacement of 3H-(+)-3-PPP at the cerebral level in mice.
Description: as §1
Background: In a radioligand displacement assay an active substance lowers the binding of a labelled ligand.

T2 sequence (Q9R0C9 whole entry): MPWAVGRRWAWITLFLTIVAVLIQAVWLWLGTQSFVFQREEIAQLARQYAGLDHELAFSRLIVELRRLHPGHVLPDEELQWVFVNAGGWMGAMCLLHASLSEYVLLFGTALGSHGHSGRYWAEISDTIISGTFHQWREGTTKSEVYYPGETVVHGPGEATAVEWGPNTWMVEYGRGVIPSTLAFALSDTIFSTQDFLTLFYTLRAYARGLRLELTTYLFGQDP
T1 sequence (P61169 whole entry): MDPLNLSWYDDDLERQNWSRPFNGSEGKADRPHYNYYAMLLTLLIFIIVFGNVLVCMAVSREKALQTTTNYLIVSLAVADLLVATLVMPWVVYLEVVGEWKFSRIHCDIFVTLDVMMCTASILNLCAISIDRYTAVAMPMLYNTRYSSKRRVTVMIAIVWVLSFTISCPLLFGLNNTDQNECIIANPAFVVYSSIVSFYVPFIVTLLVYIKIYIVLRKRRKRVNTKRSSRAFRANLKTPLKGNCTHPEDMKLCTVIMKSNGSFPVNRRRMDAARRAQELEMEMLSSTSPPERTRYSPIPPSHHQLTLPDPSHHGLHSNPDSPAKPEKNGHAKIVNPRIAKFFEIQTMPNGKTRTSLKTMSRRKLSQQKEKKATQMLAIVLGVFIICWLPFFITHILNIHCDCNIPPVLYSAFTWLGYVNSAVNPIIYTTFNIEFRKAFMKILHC

As to `Cl.Clc1cc(/C=C\CN2CCCCCC2)ccc1C1CCCCC1` [Example 2, cis-3-(Hexahydroazepin-1-yl)-1-(3-chloro-4-cyclohexylphenyl)-1-propene hydrochloride], the “sigma impact compared with haloperidol” value with sigma receptors [1] is listed as “superior and/or more selective sigma impact than that of haloperidol”. Further, the “hyperactivity induced by d-amphetamine” value in assay [2] is given as “active”. The concentration for half-maximal inhibition (IC50) was above 10000 nM on TCP, 10000 nM on dopaminergic receptor(s), 8 nM at sigma receptors [3] and 10 nM on sigma receptors [4]. Further, in the assay with sigma receptors [5], the “displacement of the ligand (+)-3PPP, at the cerebral level” value is reported as “active”.
